Source: ChEMBL document CHEMBL3832028, “DailyMed|setid=372af566-d6ec-446f-88db-0b4cc83b577f | GLYBURIDE AND METTFORMIN HYDROCHLORIDE - glyburide and hydrochloride tablet, film coated| Citron Pharma LLC”

Experiment: Tmax for Glyburide following single oral co-administration of 5 mg glyburide and 500 mg metformin hydrochloride to feeding subjects.
Assay type: ADME, organism-based
Settings: human, in vivo, dietary status Fed, dosed compound id 13, dosed compound name GLYBURIDE, regimen Single dose, tissue Plasma

Tmax: 2.75 h
Compound: COc1ccc(Cl)cc1C(=O)NCCc1ccc(S(=O)(=O)NC(=O)NC2CCCCC2)cc1 [GLYBURIDE]
